Data as given in the supplement of paper PMC4954754.
± gives the uncertainty stated by the source.

Tests used:
Conditions in all cases: 18 h
[1] = test system: HEK293T-Rex ERSE-FLuc; assay: EC50 for ERSE-FLuc reporter activation
Procedure: (§1)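 Dose-response of hit compounds in HEK293T-Rex cells stably expressing ERSE-FLuc or XBP1-RLuc reporters, 18 hr treatment, 1536-well; luminescence normalised to 500 nM thapsigargin (100%) and DMSO (0%), fitted to give EC50 (M) and maximal activation; '>' marks EC50 above the top tested dose (~17 µM).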

[2] = test system: HEK293T-Rex XBP1-RLuc; assay: EC50 for XBP1-RLuc reporter activation
Procedure: as §1

[3] = test system: HEK293T-Rex ERSE-FLuc; assay: maximal ERSE-FLuc activation from dose-response fit, relative to thapsigargin (% of thapsigargin); higher = stronger activation
Procedure: as §1

[4] = test system: HEK293T-Rex XBP1-RLuc; assay: maximal XBP1-RLuc activation from dose-response fit, relative to thapsigargin (% of thapsigargin); higher = stronger activation
Procedure: as §1

Structure (SMILES) | EC50 for ERSE-FLuc reporter activation [1] [µM] | EC50 for XBP1-RLuc reporter activation [2] [µM] | maximal ERSE-FLuc activation [3] | maximal XBP1-RLuc activation [4]
Cc1ccc(O)c(N/C=C/C(=O)c2cccs2)c1 | 5.29 | 10 | 225 ± 15 | 56.5 ± 2.8
COc1ccc(/C=N/NC(=O)c2cccc(F)c2)cc1Br | > 16.9 | > 16.9 | 31 ± 5.5 | 1.14 ± 6.2
NC(=O)c1c(NC(=O)c2cccc3ccccc23)sc2c1CCC2 | > 16.9 | > 16.9 | 21.9 ± 5.8 | 23.1 ± 6.4
N#Cc1ccc(-c2cccs2)nc1SCc1ccccn1 | > 16.4 | > 16.4 | 28.6 ± 1.8 | 5.22 ± 2.9
C=CCNC(=O)c1cc(-c2ccc(F)cc2)on1 | 16.7 | > 16.9 | 50.2 ± 7.4 | 6.35 ± 5.3
Nc1cn(-c2ccccc2)nc1-c1cccs1 | > 19.6 | 3.71 | 47.7 ± 4.1 | 156 ± 4.4
COc1ccc(/C=C/c2nc3cc([N+](=O)[O-])ccc3s2)cc1O | > 18.5 | > 18.5 | 39.5 ± 2.4 | 8.74 ± 5.7
CC(=O)N1CCc2c([nH]c3ccccc23)C12CCN(CCCOc1ccccc1)CC2 | 2.94 | 2.11 | 151 ± 7.6 | 176 ± 21
Oc1ccc(-c2csc3nc(-c4ccccc4)nn23)c(O)c1 | > 16.9 | > 16.9 | 30.1 ± 2.2 | 32.4 ± 1.3
CCCCCC(=O)Nc1ccc(C(=O)Nc2ccccc2O)cc1 | 8.09 | > 15.6 | 112 ± 10 | 21.2 ± 1.6
Cc1cc(C)c(OCC(=O)N/N=C/c2ccc(O)c(O)c2)c(Br)c1 | > 16.9 | > 16.9 | 49.6 ± 5.9 | 41.1 ± 11
CC(C)NC(=O)c1cc(-c2ccc(O)cc2)on1 | > 16.9 | > 16.9 | 1.46 ± 1 | 0.798 ± 0.58
O=C(NCCc1ccccc1)c1cc(-c2cccs2)on1 | 12.4 | > 16.9 | 64.6 ± 9.1 | 8.27 ± 3.3
O=C(N/N=C/c1cccc(O)c1O)c1ccccn1 | > 18.4 | > 18.4 | 25.7 ± 1.9 | 20.3 ± 1.1
CNC(=O)c1ccccc1Nc1cc(NC(=O)Cc2ccc(F)c(F)c2)ncc1C(F)(F)F | > 16.9 | > 16.9 | 3.28 ± 7.2 | 2.4 ± 1.1
CN(C)/C=N/C1=C(C#N)C(c2ccc3c(c2)OCO3)c2ccc3ccccc3c2O1 (centres undefined) | > 16.6 | > 16.6 | 21.8 ± 6.6 | 7.29 ± 3.2
C=CCNC(=O)c1sc2nc3cc(C)c(C)cc3cc2c1N | > 16.9 | > 16.9 | 8.68 ± 2 | 2.32 ± 1.2
Cc1cc(C)nc(/N=C(\N)Nc2ccc(OCc3ccccc3)cc2)n1 | > 14.6 | 0.788 | 46.9 ± 15 | 94.2 ± 4.2
O=c1/c(=C/c2ccc(O)c(O)c2)sc2nc3ccccc3n12 | 6.02 | > 16.9 | 59.2 ± 3.9 | 43.9 ± 5.4
O=C1N/C(=C\c2ccc(O)cc2)C(O)=C1C=NCc1ccccc1 | > 16.9 | 2.96 | 40.4 ± 7.5 | 74.2 ± 4.9
Cc1ccc(O)c(NC(=O)c2cc(CC(C)C)on2)c1 | 3.94 | > 16.9 | 89.2 ± 8 | 37.2 ± 9.3
